Source: US12692261B2, “Substituted heterocyclic compounds and therapeutic uses thereof” (Bayer Aktiengesellschaft, priority 2020, dated 2026)
Like-named read-outs stand apart in the source and are kept apart here.

What was measured:
[1] = molecular target: T1, wild-type Epidermal Growth Factor Receptor (EGFR) (Homo sapiens, UniProt P00533); experiment: WT-EGFR Kinase Assay (TR-FRET, 2 mM ATP); format: biochemical
T1 construct: a fragment of human EGFR (amino acids R669 to A1210); made in house; host or cells: Sf9 insect cells
T1 sequence (P00533 669-1210): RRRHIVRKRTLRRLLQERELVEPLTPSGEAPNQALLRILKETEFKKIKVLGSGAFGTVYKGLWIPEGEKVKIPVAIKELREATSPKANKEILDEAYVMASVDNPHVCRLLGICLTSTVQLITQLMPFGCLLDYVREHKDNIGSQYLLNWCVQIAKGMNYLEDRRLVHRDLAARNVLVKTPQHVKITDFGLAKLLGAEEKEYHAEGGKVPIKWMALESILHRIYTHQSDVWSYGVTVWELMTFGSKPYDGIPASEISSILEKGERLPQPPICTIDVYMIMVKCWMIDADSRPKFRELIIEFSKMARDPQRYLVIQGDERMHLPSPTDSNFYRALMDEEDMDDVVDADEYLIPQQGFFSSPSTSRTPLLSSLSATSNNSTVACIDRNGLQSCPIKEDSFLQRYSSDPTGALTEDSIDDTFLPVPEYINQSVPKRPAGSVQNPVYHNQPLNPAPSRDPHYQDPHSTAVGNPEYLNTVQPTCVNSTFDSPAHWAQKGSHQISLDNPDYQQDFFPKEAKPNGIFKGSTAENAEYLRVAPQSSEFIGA
Excerpt: Inhibitory activity of compounds of the present invention against wild-type Epidermal Growth Factor Receptor (EGFR) was quantified employing the TR-FRET based EGFR assay as described in the following paragraphs.
Recombinant fusion protein of N-terminal Glutathion-S-Transferase (GST) and a fragment of human EGFR (amino acids R669 to A1210), expressed in Sf9 insect cells and purified via affinity chromatography using Glutathion Sepharose as described above, was used as kinase. As substrate for the kinase reaction the biotinylated peptide biotin-Ahx-[…] (C-terminus in amide form) was used which can be purchased e.g. form the company Biosynthan GmbH (Berlin-Buch, Germany).
For the assay 50 nl of a 100 fold concentrated solution of the test compound in DMSO was pipetted into either a black low volume 384 well microtiter plate or a black 1536 well microtiter plate (both Greiner Bio-One, Frickenhausen, Germany), 2 μL of a solution of EGFR in aqueous assay buffer [50 mM Hepes pH 7.0, 10 mM MgCl2, 1 mM dithiothreitol, 0.5 mM EGTA, 0.3 mM activated sodium ortho-vanadate, 0.005% (w/v) bovine serum albumin, 0.005% (v/v) Tween-20] were added and the mixture was incubated for 15 min at 22° C. to allow pre-binding of the test compounds to the enzyme before the start of the kinase reaction. […] The concentration of EGFR was adjusted depending of the activity of the enzyme lot and was chosen appropriate to have the assay in the linear range, typical concentration was 7.6 pg/μL. The reaction was stopped by the addition of 3 μL of a solution of HTRF detection reagents (83.3 nM streptavidine-XL665 [Cisbio Bioassays, Codolet, France] and 1.67 nM PT66-Tb-Cryptate, a terbium-cryptate labelled anti-phospho-tyrosine antibody from Cisbio Bioassays [instead of the PT66-Tb-cryptate PT66-Eu-Chelate from Perkin Elmer can also be used]) in an aqueous EDTA-solution (133.3 mM EDTA, 0.2% (w/v) bovine serum albumin in 50 mM HEPES pH 7.5).
The resulting mixture was incubated 1 h at 22° C. to allow the binding of the biotinylated phosphorylated peptide to the streptavidine-XL665 and the PT66-Tb-Cryptate. Subsequently the amount of phosphorylated substrate was evaluated by measurement of the resonance energy transfer from the PT66-Tb-Cryptate to the streptavidine-XL665. Therefore, the fluorescence emissions at 620 nm and 665 nm after excitation at 337 nm were measured in a HTRF reader, e.g. a Pherastar (BMG Labtechnologies, Offenburg, Germany) or a Viewlux (Perkin-Elmer). The ratio of the emissions at 665 nm and at 622 nm was taken as the measure for the amount of phosphorylated substrate.

[2] = molecular target: T2, full-length human CSNK1A1 (Homo sapiens, UniProt P48729); experiment: CSNK1A1 High ATP Assay (ADP-Glo, 1 mM ATP); format: biochemical; settings: Table 3, read-out: CSNK1A1 high ATP assay IC50 [mol/l] (median);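 note: 30 min kinase reaction at 22 °C with 100 µM peptide substrate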
T2 construct: N-terminal Glutathion-S-Transferase (GST) and full-length human CSNK1A1; purchased Life Technologies PV4174; host or cells: baculovirus infected insect cells
T2 sequence (P48729 whole entry): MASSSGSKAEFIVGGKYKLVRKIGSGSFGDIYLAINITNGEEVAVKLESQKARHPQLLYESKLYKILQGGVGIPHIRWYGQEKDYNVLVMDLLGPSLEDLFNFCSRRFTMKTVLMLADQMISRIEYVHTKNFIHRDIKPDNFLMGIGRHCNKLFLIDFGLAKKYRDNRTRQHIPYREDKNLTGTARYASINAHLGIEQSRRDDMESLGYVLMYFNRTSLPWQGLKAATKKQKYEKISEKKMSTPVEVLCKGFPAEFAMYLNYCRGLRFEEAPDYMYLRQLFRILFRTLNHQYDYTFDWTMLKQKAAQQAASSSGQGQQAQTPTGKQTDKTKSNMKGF
In short: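 GST-tagged full-length human CSNK1A1 from baculovirus-infected insect cells (typically about 0.4 ng/μL), pre-incubated with compound 15 min at 22 °C. Reaction with biotinylated peptide biotin-Ahx-KRRRAL-pS-VASLPGL at 1 mM ATP. ADP formed read by ADP-Glo luminescence.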

[3] = EGFR Wildtyp 2 mM ATP IC50 [mol/l] (median), Table 4
[4] = read-out: EGFR Wildtyp 2 mM ATP IC50 [mol/l] (median), Table 4

Row | SMILES | IC50 [1, 3] [nM] | IC50 [2] [nM] | IC50 [1, 4] [nM]
1 | O=C(Nc1cc(-c2[nH]c3c(Cl)ccnc3c2-c2ccccn2)ccn1)C(CC(F)F)c1ccc(F)cc1 (racemic) [Example 49, (2RS)—N-{4-[7-chloro-3-(pyridin-2-yl)-1H-pyrrolo[3,2-b]pyridin-2-yl]pyridin-2-yl}-4,4-difluoro-2-(4-fluorophenyl)butanamide] | > 20000 | 3.64 | 
2 | O=C(Nc1cc(-c2[nH]c3ccc(F)nc3c2-c2cc(F)ccn2)ccn1)C(CC(F)F)c1ccc(F)cc1 (racemic) [Example 95, (2RS)-4,4-difluoro-N-{4-[5-fluoro-3-(4-fluoropyridin-2-yl)-1H-pyrrolo[3,2-b]pyridin-2-yl]pyridin-2-yl}-2-(4-fluorophenyl)butanamide] | > 20000 | 5.62 | 
3 | CC(C)(O)c1cc(F)nc2c(-c3ccccn3)c(-c3ccnc(NC(=O)C(CC(F)F)c4ccc(F)cc4)c3)[nH]c12 (racemic) [Example 98, (2RS)-4,4-difluoro-N-{4-[5-fluoro-7-(2-hydroxypropan-2-yl)-3-(pyridin-2-yl)-1H-pyrrolo[3,2-b]pyridin-2-yl]pyridin-2-yl}-2-(4-fluorophenyl)butanamide] | > 20000 | 7.36 | 
4 | O=C(Nc1cc(-c2[nH]c3cccnc3c2-c2ncccn2)ccn1)C(CC(F)F)c1ccc(F)cc1 (racemic) [Example 112, (2RS)-4,4-difluoro-2-(4-fluorophenyl)-N-[4-(3-pyrimidin-2-yl-1H-pyrrolo[3,2-b]pyridin-2-yl)-2-pyridyl]butanamide] | > 20000 | 217 | 
5 | O=C(Nc1cc(-c2[nH]c3c(C4CCCO4)cc(F)nc3c2-c2ccccn2)ccn1)C(CC(F)F)c1ccc(F)cc1 (racemic) [Example 114, (2RS)-4,4-difluoro-2-(4-fluorophenyl)-N-(4-{5-fluoro-3-(pyridin-2-yl)-7-[(2RS)-tetrahydrofuran-2-yl]-1H-pyrrolo[3,2-b]pyridin-2-yl}pyridin-2-yl)butanamide] | > 20000 | 37 | 
6 | O=C(Nc1cc(-c2[nH]c3nccnc3c2-c2ccccn2)ccn1)C(CC(F)(F)F)c1ccc(F)cc1 (racemic) [Example 119, (2RS)-4,4,4-trifluoro-2-(4-fluorophenyl)-N-{4-[7-(pyridin-2-yl)-5H-pyrrolo[2,3-b]pyrazin-6-yl]pyridin-2-yl}butanamide] | > 20000 | 48.6 | 
7 | O=C(Nc1cc(-c2[nH]c3c(OCC(F)(F)F)ncnc3c2-c2ccccn2)ccn1)C(CC(F)F)c1ccc(F)cc1 (racemic) [Example 122, (2RS)-4,4-difluoro-2-(4-fluorophenyl)-N-{4-[7-(pyridin-2-yl)-4-(2,2,2-trifluoroethoxy)-5H-pyrrolo[3,2-d]pyrimidin-6-yl]pyridin-2-yl}butanamide] | > 20000 | 29.9 | 
8 | O=C(Nc1cc(-c2[nH]c3c(OCC(F)(F)F)ncnc3c2-c2ccccn2)ccn1)C(CC(F)(F)F)c1ccc(F)cc1 (racemic) [Example 125, (2RS)-4,4,4-trifluoro-2-(4-fluorophenyl)-N-{4-[7-(pyridin-2-yl)-4-(2,2,2-trifluoroethoxy)-5H-pyrrolo[3,2-d]pyrimidin-6-yl]pyridin-2-yl}butanamide] | > 20000 | 46.1 | 
9 | O=C(Nc1cc(-c2[nH]c3c(OCC4CC4)ncnc3c2-c2ccccn2)ccn1)C(CC(F)F)c1ccc(F)cc1 (racemic) [Example 128, (2RS)—N-{4-[4-(cyclopropylmethoxy)-7-(pyridin-2-yl)-5H-pyrrolo[3,2-d]pyrimidin-6-yl]pyridin-2-yl}-4,4-difluoro-2-(4-fluorophenyl)butanamide] | 11200 | 47.4 | 
10 | O=C(Nc1cc(-c2[nH]c3ccc(F)nc3c2-c2ccccn2)ccn1)[C@H](CC(F)F)c1ccc(F)cc1 (single isomer, unassigned) [Example 3] | > 20000 | 849 | 
11 | Cc1ccc2[nH]c(-c3ccnc(NC(=O)C(CC(F)F)c4ccc(F)cc4)c3)c(-c3ccccn3)c2n1 (single isomer, unassigned) [Example 5, 4,4-difluoro-2-(4-fluorophenyl)-N-{4-[5-methyl-3-(pyridin-2-yl)-1H-pyrrolo[3,2-b]pyridin-2-yl]pyridin-2-yl}butanamide] | > 20000 | 119 | 
12 | Cc1ccc2[nH]c(-c3ccnc(NC(=O)C(CC(F)F)c4ccc(F)cc4)c3)c(-c3ccccn3)c2n1 (single isomer, unassigned) [Example 6, 4,4-difluoro-2-(4-fluorophenyl)-N-{4-[5-methyl-3-(pyridin-2-yl)-1H-pyrrolo[3,2-b]pyridin-2-yl]pyridin-2-yl}butanamide] |  | 2990 | > 20000
13 | Cc1cnc2c(-c3ccccn3)c(-c3ccnc(NC(=O)C(CC(F)F)c4ccc(F)cc4)c3)[nH]c2c1 (single isomer, unassigned) [Example 8, 4,4-difluoro-2-(4-fluorophenyl)-N-{4-[6-methyl-3-(pyridin-2-yl)-1H-pyrrolo[3,2-b]pyridin-2-yl]pyridin-2-yl}butanamide] | > 20000 | 8.57 | 
14 | Cc1cnc2c(-c3ccccn3)c(-c3ccnc(NC(=O)C(CC(F)F)c4ccc(F)cc4)c3)[nH]c2c1 (single isomer, unassigned) [Example 9, 4,4-difluoro-2-(4-fluorophenyl)-N-{4-[6-methyl-3-(pyridin-2-yl)-1H-pyrrolo[3,2-b]pyridin-2-yl]pyridin-2-yl}butanamide] |  | 945 | > 20000
15 | O=C(Nc1cc(-c2[nH]c3c(OCC(F)F)cc(F)nc3c2-c2ccccn2)ccn1)C(CC(F)F)c1ccc(F)cc1 (single isomer, unassigned) [Example 29, (2R or S)—N-{4-[7-(2,2-difluoroethoxy)-5-fluoro-3-(pyridin-2-yl)-1H-pyrrolo[3,2-b]pyridin-2-yl]pyridin-2-yl}-4,4-difluoro-2-(4-fluorophenyl)butanamide] | > 20000 | 3.31 | 
16 | O=C(Nc1cc(-c2[nH]c3c(OCC(F)F)cc(F)nc3c2-c2ccccn2)ccn1)C(CC(F)F)c1ccc(F)cc1 (single isomer, unassigned) [Example 30, (2R or S)—N-{4-[7-(2,2-difluoroethoxy)-5-fluoro-3-(pyridin-2-yl)-1H-pyrrolo[3,2-b]pyridin-2-yl]pyridin-2-yl}-4,4-difluoro-2-(4-fluorophenyl)butanamide] |  | 8.84 | > 20000
17 | O=C(Nc1cc(-c2[nH]c3nccnc3c2-c2ccccn2)ccn1)[C@@H](CC(F)F)c1ccc(F)cc1 (single isomer, unassigned) [Example 32] | > 20000 | 1.37 | 
18 | Cc1cc2[nH]c(-c3ccnc(NC(=O)C(CC(F)F)c4ccc(F)cc4)c3)c(-c3ccccn3)c2nc1F (single isomer, unassigned) [Example 34, 4,4-difluoro-N-{4-[5-fluoro-6-methyl-3-(pyridin-2-yl)-1H-pyrrolo[3,2-b]pyridin-2-yl]pyridin-2-yl}-2-(4-fluorophenyl)butanamide] | > 20000 | 3.79 | 
19 | Cc1cc2[nH]c(-c3ccnc(NC(=O)C(CC(F)F)c4ccc(F)cc4)c3)c(-c3ccccn3)c2nc1F (single isomer, unassigned) [Example 35, 4,4-difluoro-N-{4-[5-fluoro-6-methyl-3-(pyridin-2-yl)-1H-pyrrolo[3,2-b]pyridin-2-yl]pyridin-2-yl}-2-(4-fluorophenyl)butanamide] |  | 2.69 | > 20000
20 | O=C(Nc1cc(-c2[nH]c3c(OC4CC4)cc(F)nc3c2-c2ccccn2)ccn1)C(CC(F)F)c1ccc(F)cc1 (single isomer, unassigned) [Example 43, N-{4-[7-(cyclopropyloxy)-5-fluoro-3-(pyridin-2-yl)-1H-pyrrolo[3,2-b]pyridin-2-yl]pyridin-2-yl}-4,4-difluoro-2-(4-fluorophenyl)butanamide] | > 20000 | 10.2 | 
